# Assay results from PMC8931161 (2022).
# How the values were obtained:
# [1] = test system: PQS-675-WT (RNA, G4) GGGCGGGCGGCCUGCAGGGACAUGGG; test: fluorescence light-up; details: 150 mM K+, 10 mM Tris-HCl pH 7.5, 2 µM RNA
# [2] = test system: PQS-675-Mut (RNA, single strand) GAGCGAGCGGCCUGCAGAGACAUGAG; test: fluorescence light-up; details: 150 mM K+, 10 mM Tris-HCl pH 7.5, 2 µM RNA
# [3] = test system: PQS-675-WT-FRET (RNA, G4) GGGCGGGCGGCCUGCAGGGACAUGGG; test: FRET melting; details: 10 mM Tris-HCl pH 7.5, 1 µM PDS, 200 nM RNA
# [4] = test system: PQS-675-Mut-FRET (RNA, single strand) GAGCGAGCGGCCUGCAGAGACAUGAG; test: FRET melting; details: 150 mM K+; 10 mM Tris-HCl pH 7.5; 1 µM PDS, 200 nM RNA; derived from two Tm (38.33, 38.03)
# [5] = test system: PQS-675-WT (RNA, G4) GGGCGGGCGGCCUGCAGGGACAUGGG; test: CD melting at 264 nm; details: 10 mM Tris-HCl pH 7.5, 5 µM RNA, PDS concentration not stated
# [6] = test system: PQS-675-WT-biotin (RNA, G4) GGGCGGGCGGCCUGCAGGGACAUGGG; test: bio-layer interferometry; details: K+ (folded in 150 mM KCl); PBST (PBS, 0.01% Tween-20), 25 °C; PDS 0.5-8 µM; 1:1 model; RNA immobilised
# [7] = test system: PQS-675-Mut-biotin (RNA, single strand) GAGCGAGCGGCCUGCAGAGACAUGAG; test: bio-layer interferometry; details: K+ (folded in 150 mM KCl); PBST (PBS, 0.01% Tween-20), 25 °C; PDS 0.5-8 µM; 1:1 model; RNA immobilised
structure (smiles),measurement,setting,value
Cc1ccc2c(c1)sc(-c1ccc(N(C)C)cc1)[n+]2C,binding,[1]; 2 µM ThT,yes
same,binding,"[2]; 2 µM ThT, decreased but still strong, non-specific",yes
CCc1c(C)c2cc3nc(cc4nc(cc5c(CC)c(C)c(cc1[nH]2)n5C)C(C)=C4CCC(=O)O)C(CCC(=O)O)=C3C,binding,[1]; 2 µM NMM,yes
same,binding,"[2]; 2 µM NMM, intensity decreased",weak
NCCOc1cc(C(=O)Nc2cc(OCCN)c3ccccc3n2)nc(C(=O)Nc2cc(OCCN)c3ccccc3n2)c1,ΔTm,"[3]; 150 mM K+, derived from two Tm (74.00, 77.48)",3.48 °C
same,ΔTm,"[3]; 150 mM Li+, derived from two Tm (63.27, 65.71)",2.44 °C
same,ΔTm,[4],-0.30 °C
same,ΔTm,"[5]; 150 mM K+, derived from two Tm (70.00, 74.00)",4.00 °C
same,ΔTm,"[5]; 150 mM Li+, derived from two Tm (64.00, 64.00)",0.00 °C
same,KD,[6],604.9 ± 2.84 nM
same,KD,[7],3327 ± 0.07 nM
